Laboratory results published in patent US20150291565A1, “INDOLE COMPOUNDS AND THEIR USE AS ANTIMICROBIALS” (Memorial Sloan-Kettering Cancer Center, priority 2012, published 2015).
Converted amounts (≈) assume the structure as drawn. Read-outs that look alike come from different tables or passages of the source.

Legend:
MRSA = test: Disk diffusion assay, zone of inhibition, MRSA; format: cell-based, Staphylococcus aureus; settings: disk diffusion zone of inhibition
M. smegmatis (mc2155) = test: Disk diffusion assay, zone of inhibition, M. smegmatis; format: cell-based; settings: disk diffusion zone of inhibition
[1] = system: S. aureus ATCC 29213 (MSSA); test: Broth dilution MIC, S. aureus ATCC 29213; format: cell-based; settings: Staphylococcus aureus
[2] = system: S. aureus ATCC 33591 (MRSA); test: Broth dilution MIC, S. aureus ATCC 33591; format: cell-based; settings: for MIC: Staphylococcus aureus
S. aureus BAA-39 (MDR) = test: Broth dilution MIC, S. aureus BAA-39; format: cell-based; settings: for MIC: Staphylococcus aureus, BAA39
[3] = system: S. pneumoniae ATCC 6301 (PSSP); test: Broth dilution MIC, S. pneumoniae ATCC 6301; format: cell-based; settings: Streptococcus pneumoniae
[4] = system: S. pneumoniae ATCC 700674 (PRSP); test: Broth dilution MIC, S. pneumoniae ATCC 700674; format: cell-based; settings: Streptococcus pneumoniae
[5] = system: E. faecalis ATCC 29212 (VRE); test: Broth dilution MIC, E. faecalis ATCC 29212; format: cell-based
[6] = system: E. faecium ATCC 700221 (VRE); test: Broth dilution MIC, E. faecium ATCC 700221; format: cell-based
E. faecium CT-26 = test: Broth dilution MIC, E. faecium CT-26; format: cell-based; settings: Enterococcus faecium
E. coli ECM 1694 = test: Broth dilution MIC, E. coli ECM 1694; format: cell-based; settings: Escherichia coli
E. coli ATCC 25922 = test: Broth dilution MIC, E. coli ATCC 25922; format: cell-based; settings: Escherichia coli
K. pneumoniae ATCC 13883 = test: Broth dilution MIC, K. pneumoniae ATCC 13883; format: cell-based; settings: Klebsiella pneumoniae
K. pneumoniae ATCC 51503 = test: Broth dilution MIC, K. pneumoniae ATCC 51503; format: cell-based; settings: Klebsiella pneumoniae
P. aeruginosa ATCC 9027 = test: Broth dilution MIC, P. aeruginosa ATCC 9027; format: cell-based; settings: Pseudomonas aeruginosa
C. albicans ATCC 14053 = test: Broth dilution MIC, C. albicans ATCC 14053; format: cell-based; settings: Candida albicans, ATCC14053; Table 1; range 64 down to 0.12 μg/ml
Experimental: In vitro Anti-bacterial & Anti-fungal Activity Assay: All test compounds were prepared as 6.4 mg/ml stock solutions in DMSO and further diluted according to the NCCLS M7-A6 (Page 5) document with sterile water or appropriate diluent. A working stock of 256 μg/ml was used to do 1:2 serial dilutions in 96-well plates. […] The inoculums were prepared by making a direct sterile water suspension of isolated colonies from 18 to 24 hr agar plates for all organisms (Mueller Hinton, Blood Agar or SDA plates). Each bacterial suspension was adjusted to read between 0.09 and 0.11 absorbance at 620 nm. […] These were further diluted 1/100 in appropriate broth for inoculating the 96-well plates. The C. albicans suspension was adjusted to read between 70 and 75% Transmittance at 530 nm and then diluted 1/500 in RPMI+MOPS broth. All aerobic bacterial and fungal plates were incubated for 18 hrs. at 35° C. […] Plates were read using a Beckman Automated Plate Reader at 650 nm. Readings were confirmed by visual examination of plates. (See Table 1, Table 2, Table 3, and Table 4). […] It is important to note that positive results against C. albicans are often indicative of broad spectrum antifungal activity, while negative results are not necessarily conclusory of a lack of activity against other fungus.

[7] = Table 1, range 64 down to 0.12 μg/ml, read-out: MIC S. aureus ATCC 29213
[8] = Table 2, broth dilution MIC in ug/ml, read-out: MIC S aureus ATCC 29213 MSSA
[9] = Table 1, range 64 down to 0.12 μg/ml, read-out: MIC S. aureus ATCC 33591
[10] = Table 2, broth dilution MIC in ug/ml, read-out: MIC S aureus ATCC 33591 MRSA
[11] = Table 1, range 64 down to 0.12 μg/ml, read-out: MIC S. aureus BAA-39
[12] = Table 2, broth dilution MIC in ug/ml, read-out: MIC S aureus BAA-39 MDR
[13] = ATCC6301, Table 1, range 64 down to 0.12 μg/ml, read-out: MIC S. pneumoniae ATCC 6301
[14] = ATCC6301, Table 2, broth dilution MIC in ug/ml, read-out: MIC S pneumonia ATCC 6301 PSSP
[15] = Table 1, range 64 down to 0.12 μg/ml, read-out: MIC S. pneumoniae ATCC 700674
[16] = Table 2, broth dilution MIC in ug/ml, read-out: MIC S pneumonia ATCC 700674 PRSP
[17] = Enterococcus faecalis, Table 1, range 64 down to 0.12 μg/ml, read-out: MIC E. faecalis ATCC 29212
[18] = Table 2, broth dilution MIC in ug/ml, read-out: MIC E faecalis ATCC 29212 VRE
[19] = Enterococcus faecium, Table 1, range 64 down to 0.12 μg/ml, read-out: MIC E. faecium ATCC 700221
[20] = Table 2, broth dilution MIC in ug/ml, read-out: MIC E faecium ATCC 700221 VRE
[21] = CT26, Table 1, range 64 down to 0.12 μg/ml, read-out: MIC E. faecium CT-26
[22] = CT26, Table 2, broth dilution MIC in ug/ml, read-out: MIC E faecium CT-25
[23] = ECM1694, Table 1, range 64 down to 0.12 μg/ml, read-out: MIC E. coli ECM 1694
[24] = ECM1694, Table 2, broth dilution MIC in ug/ml, read-out: MIC E. coli ECM 1693
[25] = ATCC 25921 / ATCC 25922, Table 2, broth dilution MIC in ug/ml, read-out: MIC E. coli ATCC 25921
[26] = ATCC25922, Table 1, range 64 down to 0.12 μg/ml, read-out: MIC E. coli ATCC 25922
[27] = ATCC13883, Table 1, range 64 down to 0.12 μg/ml, read-out: MIC K. pneumoniae ATCC 13883
[28] = ATCC13883, Table 2, broth dilution MIC in ug/ml, read-out: MIC K pneumonia ATCC 13883
[29] = ATCC51503, Table 1, range 64 down to 0.12 μg/ml, read-out: MIC K. pneumoniae ATCC 51503
[30] = ATCC51503, Table 2, broth dilution MIC in ug/ml, read-out: MIC K pneumonia ATCC 51503
[31] = ATCC 9026 / ATCC 9027, Table 2, broth dilution MIC in ug/ml, read-out: MIC P aeruginosa ATCC 9026
[32] = ATCC9027, Table 1, range 64 down to 0.12 μg/ml, read-out: MIC P. aeruginosa ATCC 9027

SMILES	Zone Size MRSA (MRSA)	Zone Size M. smegmatis (M. smegmatis (mc2155))	MIC [1, 7]	MIC [1, 8]	MIC [2, 9]	MIC [2, 10]	MIC (S. aureus BAA-39 (MDR); [11])	MIC (S. aureus BAA-39 (MDR); [12])	MIC [3, 13]	MIC [3, 14]	MIC [4, 15]	MIC [4, 16]	MIC [5, 18]	MIC [6, 19]	MIC [6, 20]	MIC (E. faecium CT-26; [21])	MIC (E. faecium CT-26; [22])	MIC (E. coli ECM 1694; [23])	MIC (E. coli ECM 1694; [24])	MIC (E. coli ATCC 25922; [25])	further results
c1cc(-c2cc3ccc(C4=NCCN4)cc3[nH]2)ccc1Nc1ccc(N2CCOCC2)cc1 [SKI-11]	11 mm	11 mm	8 µg/mL (≈ 18.3 µM)	8 µg/mL (≈ 18.3 µM)	4 µg/mL (≈ 9.14 µM)	4 µg/mL (≈ 9.14 µM)	4 µg/mL (≈ 9.14 µM)	4 µg/mL (≈ 9.14 µM)	4 µg/mL (≈ 9.14 µM)	4 µg/mL (≈ 9.14 µM)	16 µg/mL (≈ 36.6 µM)	16 µg/mL (≈ 36.6 µM)	4 µg/mL (≈ 9.14 µM)	1 µg/mL (≈ 2.29 µM)	1 µg/mL (≈ 2.29 µM)	1 µg/mL (≈ 2.29 µM)	1 µg/mL (≈ 2.29 µM)	1 µg/mL (≈ 2.29 µM)	1 µg/mL (≈ 2.29 µM)	16 µg/mL (≈ 36.6 µM)	MIC [5, 17]: 4 µg/mL (≈ 9.14 µM); MIC (E. coli ATCC 25922; [26]): 16 µg/mL (≈ 36.6 µM); MIC (K. pneumoniae ATCC 13883; [27]): > 64 µg/mL; MIC (K. pneumoniae ATCC 13883; [28]): 64 µg/mL (≈ 146 µM); MIC (K. pneumoniae ATCC 51503; [29]): > 64 µg/mL; MIC (K. pneumoniae ATCC 51503; [30]): 64 µg/mL (≈ 146 µM); MIC (P. aeruginosa ATCC 9027; [31]): 64 µg/mL (≈ 146 µM); MIC (P. aeruginosa ATCC 9027; [32]): > 64 µg/mL; MIC (C. albicans ATCC 14053): 32 µg/mL (≈ 73.1 µM)
c1ccc(-c2ccc(Nc3ccc(-c4cc5ccc(C6=NCCN6)cc5[nH]4)cc3)cc2)nc1 [SKI-12]	10 mm	12 mm	1 µg/mL (≈ 2.33 µM)	1 µg/mL (≈ 2.33 µM)	1 µg/mL (≈ 2.33 µM)	1 µg/mL (≈ 2.33 µM)	1 µg/mL (≈ 2.33 µM)	1 µg/mL (≈ 2.33 µM)	≤ 0.12 µg/mL	0.12 µg/mL (≈ 0.279 µM)	≤ 0.12 µg/mL	0.12 µg/mL (≈ 0.279 µM)	0.25 µg/mL (≈ 0.582 µM)	≤ 0.12 µg/mL	0.12 µg/mL (≈ 0.279 µM)	≤ 0.12 µg/mL	0.12 µg/mL (≈ 0.279 µM)	4 µg/mL (≈ 9.31 µM)	4 µg/mL (≈ 9.31 µM)	4 µg/mL (≈ 9.31 µM)	MIC ([1]; Table 3, starting at 4 μg/ml, read-out: MIC S. aureus ATCC 29213): 1 µg/mL (≈ 2.33 µM); MIC S. aureus ATCC 33591 ([2]; Table 3, starting at 4 μg/ml): 1 µg/mL (≈ 2.33 µM); MIC S. aureus BAA-39 (S. aureus BAA-39 (MDR); Table 3, starting at 4 μg/ml): 1 µg/mL (≈ 2.33 µM); MIC ([3]; ATCC6301, Table 3, starting at 4 μg/ml, read-out: MIC S. pneumoniae ATCC 6301): 0.12 µg/mL (≈ 0.279 µM); MIC ([4]; Table 3, starting at 4 μg/ml, read-out: MIC S. pneumoniae ATCC 700674): 0.12 µg/mL (≈ 0.279 µM); MIC ([5]; Enterococcus faecalis, Table 3, starting at 4 μg/ml, read-out: MIC E. faecalis ATCC 29212): 0.25 µg/mL (≈ 0.582 µM); MIC ([6]; Enterococcus faecium, Table 3, starting at 4 μg/ml, read-out: MIC E. faecium ATCC 700221): 0.12 µg/mL (≈ 0.279 µM); MIC (E. faecium CT-26; CT26, Table 3, starting at 4 μg/ml, read-out: MIC E. faecium CT-26): 0.12 µg/mL (≈ 0.279 µM); MIC (E. coli ECM 1694; ECM1694, Table 3, starting at 4 μg/ml, read-out: MIC E. coli ECM 1694): 4 µg/mL (≈ 9.31 µM); MIC (E. coli ATCC 25922; [26]): 4 µg/mL (≈ 9.31 µM); MIC (K. pneumoniae ATCC 13883; [27]): 8 µg/mL (≈ 18.6 µM); MIC (K. pneumoniae ATCC 13883; [28]): 8 µg/mL (≈ 18.6 µM); MIC (K. pneumoniae ATCC 51503; [29]): 8 µg/mL (≈ 18.6 µM); MIC (K. pneumoniae ATCC 51503; [30]): 8 µg/mL (≈ 18.6 µM); MIC (P. aeruginosa ATCC 9027; [31]): 32 µg/mL (≈ 74.5 µM); MIC (P. aeruginosa ATCC 9027; [32]): 32 µg/mL (≈ 74.5 µM); MIC (C. albicans ATCC 14053): 8 µg/mL (≈ 18.6 µM)
Nc1ccc(-c2ccc3cc(-c4ccc(Nc5ccc(C6=NCCN6)cc5)cc4)[nH]c3c2)cc1 [SKI-20]	9 mm	8 mm	> 64 µg/mL	64 µg/mL (≈ 144 µM)	> 64 µg/mL	64 µg/mL (≈ 144 µM)	> 64 µg/mL	64 µg/mL (≈ 144 µM)	2 µg/mL (≈ 4.51 µM)	2 µg/mL (≈ 4.51 µM)	4 µg/mL (≈ 9.02 µM)	4 µg/mL (≈ 9.02 µM)	32 µg/mL (≈ 72.1 µM)	16 µg/mL (≈ 36.1 µM)	16 µg/mL (≈ 36.1 µM)	8 µg/mL (≈ 18 µM)	8 µg/mL (≈ 18 µM)	64 µg/mL (≈ 144 µM)	64 µg/mL (≈ 144 µM)	64 µg/mL (≈ 144 µM)	MIC [5, 17]: 32 µg/mL (≈ 72.1 µM); MIC (E. coli ATCC 25922; [26]): > 64 µg/mL; MIC (K. pneumoniae ATCC 13883; [27]): > 64 µg/mL; MIC (K. pneumoniae ATCC 13883; [28]): 64 µg/mL (≈ 144 µM); MIC (K. pneumoniae ATCC 51503; [29]): > 64 µg/mL; MIC (K. pneumoniae ATCC 51503; [30]): 64 µg/mL (≈ 144 µM); MIC (P. aeruginosa ATCC 9027; [31]): 64 µg/mL (≈ 144 µM); MIC (P. aeruginosa ATCC 9027; [32]): > 64 µg/mL; MIC (C. albicans ATCC 14053): > 64 µg/mL
